Results published in patent publication EP2282358A1, “Host material for light-emitting devices” (Solvay SA, priority 2009, dated 2011).
Read-outs that look alike come from different tables or passages of the source.

What was measured:
[1] = HOMO and LUMO measurement (cyclic voltammetry and optical energy gap); format: physicochemical; conditions: for HOMO: estimated from the LUMO level and the optical energy gap (UV-visible absorption onset); for LUMO: from peak potential of 1st reduction wave, cyclic voltammetry in anhydrous tetrahydrofuran, ferrocene internal standard
Experimental: The LUMO (lowest unoccupied molecular orbital) levels are estimated from cyclic voltammetry. Voltammetric measurements are performed using a PC-controlled Autolab PGSTAT128N electrochemical workstation coupled with a 663 VA Stand measure unit. Cyclic voltammograms are recorded at room temperature under an argon atmosphere in anhydrous tetrahydrofuran using 0.1 M tetrabutylammonium hexafluorophosphate (Fluka electrochemical grade) as supporting electrolyte. The working electrode is a glassy carbon disk and the counter electrode is a platinum wire or a glassy carbon rod. A silver/silver chloride electrode filled with a methanolic saturated KCl solution or a platinum wire pseudo-reference has been used as reference electrode. The sample solutions (0.5 mM) are outgassed with argon for 10 minutes before measurement. Measurements are performed with a sweep rate fixed to 0.1 V/s. Ferrocene is used as internal standard.
The LUMO level is estimated from the peak potential of the 1st observed reduction wave (E1 reduct.) using the following equation: ELUMO -(-4.8) = -[E1 reduct-EOX ½(Fc/(Fc)^+)] [formula] where EHOMO (ferrocene) has been taken equal to -4.8 eV below the vacuum level and EOX ½ (Fc/Fc^+) corresponds to the half-wave oxidation potential of the ferrocene internal standard.
The HOMO level could not be estimated directly from CV measurements because the 1st oxidation wave lies beyond the stability window of the two tested solvents (tetrahydrofuran and dichloromethane). The HOMO level is thus estimated from the LUMO level and optical energy gap (Eopt g): EHOMO = ELUMO -Eopt g , [formula] the optical energy gap being determined from the absorption onset in the UV-visible absorption spectrum.

[2] = Solubility tests in organic solvents; format: physicochemical; conditions: for solubilities toward chlorobenzene and toluene: result in words

In the case of CC(C)(C)c1ccc(-c2nnc(-c3cc(-c4nnc(-c5ccc(C(C)(C)C)cc5)o4)cc(C(F)(F)C(F)(F)C(F)(F)C(F)(F)C(F)(F)C(F)(F)F)c3)o2)cc1 [Formula C6F13-OXD7], the HOMO [1] is reported as -6.1 eV, the LUMO [1] is reported as -2.5 eV and the “solubilities toward chlorobenzene and toluene” value [2] is reported as “good solubilities”. The Solubility in chlorobenzene ([2]; solvent chlorobenzene) was > 4.5 wt% and the Solubility in toluene ([2]; solvent toluene) was 2.5 wt%.

With CC(C)(C)c1ccc(-c2nnc(-c3cccc(-c4nnc(-c5ccc(C(C)(C)C)cc5)o4)c3)o2)cc1 [OXD7, reference compound] the HOMO [1] was -6.0 eV, the LUMO [1] was -2.3 eV and the Solubility in chlorobenzene [2] was < 1.5 wt%. For the same molecule, the Solubility in toluene [2] was “Not soluble” and the “solubility for most organic solvents” value [2] was “lacks solubility”.

For CC(C)(C)c1ccc(-c2nnc(-c3cc(-c4nnc(-c5ccc(C(C)(C)C)cc5)o4)cc(C(C)(C)C)c3)o2)cc1 [tBu-OXD7], the HOMO [1] was -6.0 eV, the LUMO [1] was -2.3 eV and the “solubilities toward chlorobenzene and toluene” value [2] was “good solubilities”. The Solubility in chlorobenzene ([2]; solvent chlorobenzene) was > 7.2 wt% and the Solubility in toluene ([2]; solvent toluene) was > 5 wt%.
